Experiments:
[1] = test system: mouse monocyte-macrophage cells (ATCC TIB 67 J774A.1); assay: Cell-mediated oxidation of LDL (MDA, thiobarbituric acid assay), J774A.1 cells; type: cell-based; conditions: 30 μM, after 10 hours incubation, FIG. 7
Procedure: The antioxidant capacity of the compounds of the invention, on cell-mediated oxidation, was evaluated by incubating LDL and mouse monocyte-macrophage cells (ATCC TIB 67 J774A.1) with CuSO4 solution in the presence of […], lercanidipine or one of its enantiomers at several concentrations. The inhibition of formation of aldehydic breakdown products, i.e., secondary metabolites of lipid peroxidation, malonic dialdehyde (MDA), was assessed by detection of dialdehyde formation using the thiobarbituric acid assay (A. N. Hanna et al., Biochem. Pharmacol. 45: 753 (1993)).
The antioxidant capacity was evaluated by incubating ethylene-diaminetetraacetic acid free-LDL under sterile conditions with 5 μM Cu++ (100 μg Apo B/ml) in the presence of J774A.1 cells. Oxidation was stopped after 22 hours incubation by addition of butylated hydroxytoluene to the medium (final concentration 40 μM) dissolved in ethanol. […] Malonic dialdehyde equivalents were calculated using 1,1,3,3-tetramethoxypropane as the standard.
In experiments 9A and 9B, the cell-mediated oxidation effects of lercanidipine were investigated after incubation for 22 hours. […] Samples were withdrawn from the incubation medium and the oxidation product, MDA, measured as described above.

[2] = test system: EAhy-926; assay: Cell-mediated oxidation of LDL (MDA), EAhy-926 cells; type: cell-based; conditions: 10 to 100 μM, 22 hours, FIG. 6
Procedure: The antioxidant capacity was evaluated by incubating ethylene-diaminetetraacetic acid free-LDL under sterile conditions with 5 μM Cu++ (100 μg Apo B/ml) in the presence of J774A.1 cells. Oxidation was stopped after 22 hours incubation by addition of butylated hydroxytoluene to the medium (final concentration 40 μM) dissolved in ethanol. To the incubated sample (0.250 ml), was added trichloroacetic acid (0.750 ml, 0.20% w/v) followed by of thiobarbituric acid (0.750 ml, 0.67% w/v). The samples were heated at 100° C. for 20 min, followed by cooling and centrifugation. Malonic dialdehyde equivalents were calculated using 1,1,3,3-tetramethoxypropane as the standard.
Following the procedure in Example 9A, the effects of lercanidipine on cell-mediated oxidation were studied with a different cell line which shares many of the properties of endothelial cells (EAhy-926). (The cells were provided by: Prof. A. Catapano, Pharmacology Dept., Universita Statale--Milano.) (These or other endothelial cells can be obtained as described by C-J. S. Edgall et al., Proc. Nat. AcAd. Sci., 80: 3734-3737, (1983); and Gimbrone, M., Prog. Hemostasis Thromb., 3: 1-28, (1976)). The cells were treated with lercanidipine at a concentration of from about 10 to about 100 μM.

[3] = test system: LDL, isolated from human plasma; assay: Chemical (Cu++) oxidation of LDL, conjugated diene formation at 234 nm; type: biochemical; design: Lag time of LDL oxidation: unit not given here
Procedure: The ability of Lercanidipine to function as an antioxidant was evaluated by incubating LDL, isolated from human plasma, for 22 hours with an oxidizing agent (20 μM Cu++) in the presence of different concentrations of the test compounds (0.01 μM-50 μM). The LDL oxidation was followed by monitoring conjugated diene formation with a ultraviolet (UV) spectrometer at 234 nm.
The experimental conditions were as follows. LDL (d=1.019-1.063) were isolated from human pooled plasma by sequential ultracentrifugation at 4° C. and 40,000 rpm in a 50 Ti rotor, using a L5-50 ultracentrifuge (Beckman, Palo Alto, Calif.). The LDL were then dialyzed against 0.15 M NaCl containing 0.01% ethylenediaminetetraacetic acid pH 7.4, sterilized by filtration through a […] millipore filter and stored at 4° C. under nitrogen in the dark until use (up to 3 weeks). Before use, LDL were dialyzed against ethylenediaminetetraacetic acid free phosphate buffered saline, pH 7.4, on Sephadex G-25 columns (PD-10, Pharmacia Fine Chemicals, Uppsala, Sweden). Then the LDL were filtered through a sterile 0.22 μM filter. In a phosphate buffered saline (50 μg lipoprotein protein/ml), the LDL were oxidized by incubation at 25° C. with 20 μM CuSO4 for 3 hours. The lercanidipine solution was prepared as a 10^-2 M stock solution in methanol or ethanol and added as a methanol or ethanol solution (maximum 1% v/v) prior to addition of the copper solution. The effect of lercanidipine on the oxidation of LDL was determined by continuous monitoring of the formation of conjugated dienes by recording the increase in the absorbance at 234 nm at 5 min intervals during a three hour period, against a phosphate buffered saline blank, using a UV spectrophotometer (Beckman DU 640) equipped with a continuous reading and an automatic 6-cell changer. The time prior to the onset of oxidation (lag time) was calculated as the intercept between the line of the maximum slope of the propagation phase and the x-axis.

[4] = test system: rat myocytes; assay: Arterial myocyte migration, micro chemotaxis chamber with fibrinogen; type: cell-based; conditions: 5 hours, fibrinogen 600 μg/ml, FIG. 2
Procedure: Migration of rat myocytes was examined using a 48-well micro chemotaxis chamber (Neuro-Probe, USA). Freshly trypsinized myocytes prepared according to the procedure in Example 4A were suspended in a medium supplemented with 5% fetal calf serum (assay medium). The lower wells, containing 27 μl of the assay medium that included fibrinogen (600 μg/ml) as chemotactic agent, were covered with a polyvinylpyrrolidone-free polycarbonate filter ([…]). Fifty μl of the cell suspension (1×10^6 cells/ml) were placed in the upper compartment with the tested compounds. Incubation was carried out for 5 hours at 37° C. in an atmosphere of 95% air and 5% CO2.
After incubation the filter was removed from the chamber and non-migrated cells were scraped from the upper surface, and the filters washed with phosphate buffered saline three times. The filters were stained with Diff-Quik (Merz-Dade AG, Switzerland). The number of myocytes per 100×high power field that had migrated to the lower surface of the filters was determined microscopically. Six high power fields were counted per sample and the results were averaged.

Compound	inhibition of lipid oxidation (MDA) over time [1]	LDL oxidation (nanomoles of MDA produced) [2]	Lag time of LDL oxidation ([3]; 0.5 μM, 20 μM Cu++)	Lag time of LDL oxidation ([3]; 1.0 μM, 20 μM Cu++)	Lag time of LDL oxidation ([3]; 2.5 μM, 20 μM Cu++, P < 0.05)	Lag time of LDL oxidation ([3]; 5.0 μM, 20 μM Cu++, P < 0.01)	increase of the lag time for LDL oxidation ([3]; 10 μM)	Lag time of LDL oxidation ([3]; 10.0 μM, 20 μM Cu++, P < 0.01)	concentrations significantly suppressing the onset of LDL oxidation ([3]; 20 μM Cu++)	potency relative to lacidipine (LDL oxidation) ([3]; assays herein)	inhibition of myocytes migration [4]
COC(=O)C1=C(C)NC(C)=C(C(=O)OC(C)(C)CN(C)CCC(c2ccccc2)c2ccccc2)C1c1cccc([N+](=O)[O-])c1 (racemic) [LE, methyl 1,1,N-trimethyl-N-(3,3-diphenylpropyl)-2-aminoethyl 1,4-dihydro-2,6-dimethyl-4-(3-nitrophenyl)-pyridine-3,5-dicarboxylate]	very high inhibition of lipid oxidation	reduced the oxidation of LDL	45.2 ± 3.7	49.8 ± 4.7	53.6 ± 3.3	73.2 ± 4.8	more than 2 times	112.7 ± 5.2	greater than or equal to 2.5 μM	one order of magnitude higher	
COC(=O)C1=C(C)NC(C)=C(C(=O)OC(C)(C)CN(C)CCC(c2ccccc2)c2ccccc2)[C@@H]1c1cccc([N+](=O)[O-])c1 [(R)-LE, (R)-(-)METHYL 1,1-N-TRIMETHYL-N-(3,3-DIPHENYLPROPYL)-2-AMINOETHYL 1,4-DIHYDRO-2,6-DIMETHYL-4-(3-NITROPHENYL)PYRIDINE-3,5-DICARBOXYLATE]											most pronounced effect
